# In US7022484B2, “Methods for treating neuropathological states and neurogenic inflammatory states and methods for identifying compounds useful therein” (Board of Regents, The University of Texas System, priority 2000, dated 2006):
# “Also recorded” adds a separate entry of the source.
# System: NMDA receptor subunit NR1
# Assay: Immunocytochemical localization of NMDA receptor subunit NR1 in spinal cord of arthritic rats
# Format: in vivo, rat
# Settings: Genistein 1 mM spinal pre-treatment
# Description: Cycloheximide (100 milligrams per kilogram (mg/kg) intraperitoneal (i.p.) was used in some studies to determine if the alterations observed for the NMDA NR1 receptor subunit could be attributed to newly synthesized NR1 protein.
# Twenty-four rats in 3 separate groups were used for immunocytochemical studies. One group of rat (n=8) was a naive control. The other 2 groups (n=16) of rats received surgical placement of the microdialysis fiber placement. On the day after microdialysis fiber placement, the animals were treated spinally with either Genistein (1 mM) or vehicle (50% DMSO in aCSF) for 1.5 hours (n=8 for each group). Then the left knee joint of all sixteen rats was injected with 0.1 ml of kaolin and carrageenan.
# Animals were anesthetized and transcardially perfused with a brief warm saline rinse followed by fixative solution (4% paraformaldehyde in 0.1 M phosphate buffer, pH 7.4). The tissues were soaked overnight in 30% buffered sucrose and cut at 30 microns on a sliding microtome. For light microscopy, the tissues from animals (n=8) were permeabilized with a 50% buffered ethanol treatment. Tissue sections were then stained immunocytochemically for glutamate receptor subunit NR1 and phospho-NR1. Primary antibodies to be used for staining include anti-NMDA NR1 NMDA receptor (0.5–1 milligrams per milliliter (mg/ml)) purchased from Chemlcon Inc. (Pittsburgh, Pa.). Other neurotransmitter and receptor primary antibodies against NMDA NR2C, mGluR1, and mGluR5 were used as stain specificity controls. The primary antibodies were diluted in phosphate buffered saline (PBS, pH 7.6) with 0.1% BSA for overnight incubation on the spinal cord tissues. After washing in PBS, the tissue sections were incubated in the appropriate secondary antibody, either anti-mouse or anti-rabbit IgG (1:100, 30 minutes) and in avidin-biotin complex (ABC, 1:100, Vector Laboratories, Burlingame, Calif.). Sections were reacted with diaminobenzidine (DAB) solution (1.5 mg/ml) as the chromogen and peroxide (0.5 mg/ml) to produce a dense reaction product. To further intensify the reaction product particularly for visualization of nuclear rings, some tissues were reacted with colloidal gold conjugated IgG and reacted with a silver chloride solution to produce an intense black reaction product (Takizawa et al., J. Histochemistry & Cytochemistry, 42, 1615–1623 (1994)).
# Immunocytochemical controls included sections processed in the absence of the primary or secondary antibody or ABC reagents. The specificity of the transmitter antibodies was confirmed by appearance of a single band by Western blot. In addition to use of the C-terminus NR1 antibody from ChemIcon, an antibody directed to the N-terminus of the NR1 protein was used as control (1 mg/ml; BD PharMingen, San Diego, Calif.). […]
compound,measurement,setting,value
"O=c1c(-c2ccc(O)cc2)coc2cc(O)cc(O)c12 [Genistein, 5,7-Dihydroxy-3-(4-hydroxyphenyl)-4H-1-benzopyran-4-one; 4′,5,7-trihydroxy-isoflavone]",staining for NR1 in spinal cord,"4 hours, cycloheximide 100 mg/kg i.p.",about half that observed in arthritic rats and was not significantly increased above levels seen in normal rats; also recorded: greatly reduced expression increases for NR1 that were not significantly different from baseline
same,nuclear localization of NR1,,greatly reduced; also recorded: inhibited the shift in the pattern of NMDA NR1 protein staining
